# Measured values from patent US20060074073A1, “Therapeutic combinations comprising poly (ADP-ribose) polymerases inhibitor” (AGOURON PHARMACEUTICALS, INC., priority 2004, published 2006).
# Where “and” joins values, the source holds several entries; their conditions need not be identical. Equal entries are not always repeated.
# What was measured:
# [1] = test system: LoVo cells; assay: Inhibition of cell growth and potentiation of temozolomide/topotecan, LoVo; assay type: cell-based
# [2] = test system: PARP; assay: Inhibition of MNNG-induced cellular NAD depletion and poly-ADP-ribose polymer formation in A549 cells; assay type: cell-based; conditions: for NAD (% DMSO) / Polymer (% MNNG): MNNG 25 μM
# [3] = IV pharmacokinetics in rats; conditions: Wistar, rat, in vivo, 5 mg/kg
# From the text: Each of the dose treatment groups was split into 2 cohort groups of 4 mice. The reason for cohort blood sampling is due to the blood volume limitations of the mouse species. Blood was drawn from each cohort every other pharmacokinetic sampling time. […] Three mice per dose group were euthanized at each of the collection time points. […] Blood from each rat was collected for each time point.
# [4] = IV pharmacokinetics in monkeys; conditions: cynomolgus monkey, in vivo
# [5] = test system: LoVo xenografts; assay: Ex-vivo clonogenic assay of irradiated LoVo xenografts; assay type: in vivo
# Description: 24 h later tumors were excised, disaggregated to obtain single cell suspensions and plated for colony forming assay. […] The SF for the 15 mg/kg and 30 mg/kg IR combinations equated to that which would have been achieved using radiation doses of 8 Gy or 9.5 Gy, giving dose modification factors (DMF) of 1.6 and 1.9 respectively.
# [6] = test system: PARP; assay: PARP activity in peripheral blood lymphocytes of patients (monoclonal antibody assay); assay type: in vivo, human
# Description: Whole blood was collected into EDTA vacutainers and human PBLs were obtained by lymphopreparation according to the manufacturers instructions. Tumour biopsies were collected from the operating theatre in a sterile container and placed immediately on ice. Within 30 minutes tumour samples were snap frozen in liquid nitrogen and stored at −80° C. until homogenised for analysis. The specimen was defrosted on ice and the wet weight documented. For weights over 100 mg the tissue was homogenised using a Pro 2000 instrument (Pro Scientific Inc, Monroe, Conn., USA) in 3 volumes (i.e. 1 mg plus 3 μl isotonic buffer −7 mM Hepes, 26 mM KCl, 0.1 mM dextran, 0.4 mM EGTA, 0.5 mM MgCl2, 45 mM sucrose, pH 7.8), giving a homogenate with an overall dilution of 1 in 4. Where smaller samples had been obtained they were homogenised in 99 or 999 volumes, giving final dilutions of 1 in 100 and 1 in 1000, respectively. The homogenate was kept on ice throughout the process, and homogenisation was performed in 10 second bursts to prevent undue warming of the sample. Unless assayed on the day of homogenisation, samples were re-frozen to −80° C. and stored at this temperature until analysed. Prior to assay the samples were further diluted with isotonic buffer where necessary to give a final dilution of 1 in 1000.
# Cultured cells or rapidly defrosted lymphocyte preparations were washed twice in ice cold PBS. The cell pellets were resuspended in 0.15 mg/ml digitonin to a density of approximately 1-2×10^6 cells per ml for 5 minutes to permeabilise the cells, following which 9 volumes of ice-cold buffer (7 mM HEPES, 26 mM KCl, 0.1 mM dextran, 0.4 mM EGTA, 0.5 mM MgCl2, 45 mM sucrose, pH 7.8) were added and the sample placed on ice. The permeabilised (i.e. trypan blue stained) cell density was counted and the cell suspension was diluted if necessary with the above buffer to achieve a cell density that allowed 20,000 permeabilised cells to be added to each reaction tube. In the assay maximally stimulated PARP activity is measured by exposure to a blunt ended oligonucleotide in the presence of NAD^+ substrate, at 26° C. in an oscillating water bath. Five μl of 7 mM NAD^+ and 5 μl 200 μg/ml pallindromic oligonucleotide ([…]) were mixed with permeabilised cells and reaction buffer (100 mM Tris HCl, 120 mM MgCl2, pH 7.8) to a final volume of 100 μl. The reaction was stopped after 6 minutes by the addition of excess PARP inhibitor (400 μl of 12.5 μM Compound I) and the cells blotted onto a nitrocellulose membrane (Hybond N, Amersham) using a 24-well manifold. A purified PAR standard curve was loaded onto each membrane (0-25 pmol monomer equivalent) to allow quantification. Overnight incubation with the primary antibody (1 in 500 in PBS-MT (PBS plus 0.05% Tween 20 Plus 5% Milk powder) at 4° C. was followed by 2 washes in PBS-T (PBS plus 0.05% Tween 20) and then incubation in secondary antibody (1 in 1000 in PBS-MT) for 1 hour at room temperature. The incubated membrane was washed frequently with PBS over the course of one hour then exposed for one minute to ECL reaction solution as supplied by the manufacturer. Chemiluminesence detected during a 5 minute exposure was measured using a Fuji LAS3000 UV Illuminator (Raytek, Sheffield, UK) and digitised using the imaging software (Fuji LAS Image version 1.1, Raytek). The acquired image was analysed using Aida Image Analyser (version 3.28.001), and results expressed in LAU/mm^2. Three background areas on the exposed blot were measured and the mean of the background signal from the membrane subtracted from all results. The PAR polymer standard curve was analysed using an un-weighted one site binding non-linear regression model and unknowns read off the standard curve so generated. Results were then expressed relative to the number of cells loaded. Triplicate QC samples of 5000 L1210 cells were run with each assay, all samples from one patient being analysed on the same blot. […]
# [7] = 15 mg/kg single IV dose as glucuronate salt
smiles,measurement,setting,value
"CNCc1ccc(-c2[nH]c3cc(F)cc4c3c2CCNC4=O)cc1 [compound of formula 1, 8-fluoro-2-{4-[(methylamino)methyl]phenyl}-1,3,4,5-tetrahydro-6H-azepino[5,4,3-cd]indol-6-one]",Temozolomide PF50,[1]; +0.4 μM compound of formula 1,8 and 8.1
same,Topotecan PF50,[1]; +0.4 μM compound of formula 1,1.6 and 1.7
same,GI50,"[1]; Homo sapiens, 120 h, 5-day continuous exposure",12 µM
same,inhibition of MNNG-induced NAD depletion,[2]; 50 nM,93%
same,inhibition of poly-ADP-ribose polymer formation,[2]; 50 nM,95%
same,NAD (% DMSO),[2]; compound 0.0005 μM,77 % DMSO
same,Polymer (% MNNG),[2]; compound 0.0005 μM,40 % MNNG
same,NAD (% DMSO),[2]; compound 0.005 μM,95 % DMSO
same,Polymer (% MNNG),[2]; compound 0.005 μM,11 % MNNG
same,NAD (% DMSO),[2]; compound 0.05 μM,96 % DMSO
same,Polymer (% MNNG),[2]; compound 0.05 μM,5 % MNNG
same,NAD (% DMSO),[2]; compound 0.1 μM,97 % DMSO
same,Polymer (% MNNG),[2]; compound 0.1 μM,4 % MNNG
same,NAD (% DMSO),[2]; compound 0.4 μM,97 % DMSO
same,Polymer (% MNNG),[2]; compound 0.4 μM,4 % MNNG
same,inhibition of cellular poly-ADP-ribose formation,"[2]; MNNG-induced, 5 nM",89%
same,AUC(0-inf),[3],990 ng·h/mL
same,Vd,[3],10 L/kg
same,clearance,[3],85 mL/min/kg
same,half-life,[3],2.8 h
same,AUC(0-inf),[4]; 15 mg/kg single IV dose (free base) as glucuronate salt,7400 ± 700 ng·h/mL
same,clearance,[4]; [7],33.8 ± 3.1 mL/min/kg
same,half-life,[4]; [7],5.2 ± 0.8 h
same,Vd,"[4]; 15 mg/kg single IV dose as glucuronate salt, read-out: Vss",7.2 ± 1.2 L/kg
same,"DMF, dose modification factor",[5]; 15 mg/kg + 5 Gy,1.6
same,"SF, surviving fraction",[5]; 15 mg/kg + 5 Gy,0.06
same,radiation dose that would give the same SF,[5]; 15 mg/kg + 5 Gy,8 Gy
same,"DMF, dose modification factor",[5]; 30 mg/kg + 5 Gy,1.9
same,"SF, surviving fraction",[5]; 30 mg/kg + 5 Gy,0.03
same,radiation dose that would give the same SF,[5]; 30 mg/kg + 5 Gy,9.5 Gy
"CNCc1ccc(-c2[nH]c3cc(F)cc4c3c2CCNC4=O)cc1.O=P(O)(O)O [Compound I, phosphate salt of 8-fluoro-2-{4-[(methylamino)methyl]phenyl}-1,3,4,5-tetrahydro-6H-azepino[5,4,3-cd]indol-6-one]",decrease in median PARP activity,"[6]; PBL, all patients regardless of dose, after completion of the 30-minute infusion on Day 1",≥ 50%
same,"% Pretreatment PARP Activity, Median (%)","[6]; PBL, cohort 1, Compound I 1 mg/m^2, 4-6 h, after test dose (usually Day −7)",57%
same,"% Pretreatment PARP Activity, Median (%)","[6]; PBL, cohort 1, Compound I 1 mg/m^2, 0.5 h, after test dose (usually Day −7)",18%
same,"% Pretreatment PARP Activity, Median (%)","[6]; PBL, cohort 1, Compound I 1 mg/m^2, 24 h, after test dose (usually Day −7)",77%
same,"% Pretreatment PARP Activity, Median (%)","[6]; PBL, cohort 2, Compound I 2 mg/m^2, 4-6 h, Day 1",27%
same,"% Pretreatment PARP Activity, Median (%)","[6]; PBL, cohort 2, Compound I 2 mg/m^2, 0.5 h, Day 1",10%
same,"% Pretreatment PARP Activity, Median (%)","[6]; PBL, cohort 2, Compound I 2 mg/m^2, 24 h, Day 1",36%
same,"% Pretreatment PARP Activity, Median (%)","[6]; PBL, cohort 3, Compound I 4 mg/m^2, 4-6 h, Day 1",28%
same,"% Pretreatment PARP Activity, Median (%)","[6]; PBL, cohort 3, Compound I 4 mg/m^2, 0.5 h, Day 1",42%
same,"% Pretreatment PARP Activity, Median (%)","[6]; PBL, cohort 3, Compound I 4 mg/m^2, 24 h, Day 1",108%
same,"% Pretreatment PARP Activity, Median (%)","[6]; PBL, cohort 4, Compound I 8 mg/m^2, 4-6 h, Day 1",16%
same,"% Pretreatment PARP Activity, Median (%)","[6]; PBL, cohort 4, Compound I 8 mg/m^2, 0.5 h, Day 1",1%
same,"% Pretreatment PARP Activity, Median (%)","[6]; PBL, cohort 4, Compound I 8 mg/m^2, 24 h, Day 1",9%
same,"% Pretreatment PARP Activity, Median (%)","[6]; PBL, cohort 9, Compound I 18 mg/m^2, 4-6 h, Day 1",7.5%
same,"% Pretreatment PARP Activity, Median (%)","[6]; PBL, cohort 9, Compound I 18 mg/m^2, 0.5 h, Day 1",6%
same,"% Pretreatment PARP Activity, Median (%)","[6]; PBL, cohort 9, Compound I 18 mg/m^2, 24 h, Day 1",14%
same,median reduction in PARP activity,"[6]; PBL, cohorts 4 and 5, 24 hours after Day 1 dose",> 50%
same,"% Pretreatment PARP Activity, Median (%)","[6]; PBL, cohorts 5-8, Compound I 12 mg/m^2, 4-6 h, Day 1",13%
same,"% Pretreatment PARP Activity, Median (%)","[6]; PBL, cohorts 5-8, Compound I 12 mg/m^2, 0.5 h, Day 1",14.5%
same,"% Pretreatment PARP Activity, Median (%)","[6]; PBL, cohorts 5-8, Compound I 12 mg/m^2, 24 h, Day 1",29%
same,PARP inhibitory dose (PID),"[6]; patients, PARP activity in peripheral blood lymphocytes <50% of baseline 24 hours after Day 1 dose, with plateau",12 mg/m^2
